Among the data in the Deep4Chem optical property database are absorption maximum values, retold here.

The series in a line: solvent given as SMILES.

Several values for one entry are separate records, joined by “and”; a condition that tells them apart may be missing. Equal values may be shown once.

In the case of `CCCCCCCCCCCCOc1cc(C(=O)Nc2ccc(-c3ccc4c(c3)C(=O)c3ccccc3-4)cc2)cc(OCCCCCCCCCCCC)c1OCCCCCCCCCCCC`, where the note is “in C1CCOC1”, the absorption maximum came to 432 nm.
`COc1ccc2c(c1)CCC1=C(C#Cc3ccccc3)O[B-](F)(F)[O+]=C12` returned an absorption maximum (in ClCCl) of 443 nm.
For the setting “in ClC(Cl)Cl”, `C(#Cc1ccccc1)C(C#Cc1ccccc1)=Cc1ccc(-c2ccc(C=C(C#Cc3ccccc3)C#Cc3ccccc3)cc2)cc1` yielded an absorption maximum of 394 nm.
With `COc1ccc(-c2c3nc(cc4ccc([nH]4)c(-c4ccc(OC)c(OCCCC(=O)O)c4)c4nc(cc5ccc2[nH]5)CC4)C=C3)cc1OCCCC(=O)O`, the absorption maximum (in CS(C)=O) was determined as 644 nm.
With `COC(=O)C(NC(=O)OC(C)(C)C)c1ccc2oc(-c3ccc(N(C)C)cc3OC)nc2c1` (configuration not stated), the absorption maximum runs as follows: (in CC1CCCCC1) 336 nm; (in CC#N) 343 nm; (in CO) 346 nm.
`O=S1(=O)c2ccc(-c3ccc(-n4c5ccccc5c5ccccc54)cc3)cc2C2(c3ccccc3-c3ccccc32)c2cc(-c3ccc(-n4c5ccccc5c5ccccc54)cc3)ccc21`: the absorption maximum (in ClCCl) was determined as 341 nm.
`CN(C)c1ccc(C#Cc2cc3ccc4cc(C#Cc5ccc(N(C)C)cc5)cc5ccc(c2)c3c45)cc1` displayed an absorption maximum (in Cc1ccccc1) of 421 nm.
The compound `CCOC(=O)CN1C(=O)C2=C(c3ccc(N4CCCCC4)cc3)N(CC(=O)OCC)C(=O)C2=C1c1ccccc1` showed an absorption maximum (in CC#N) of 500 nm, an absorption maximum (in CS(C)=O) of 516 nm and an absorption maximum (in Cc1ccccc1) of 499 nm.
Where the note is “in CS(C)=O”, `O=C(O)COc1cccc(-c2c3nc(cc4ccc([nH]4)c(-c4cccc(OCC(=O)O)c4)c4nc(cc5ccc2[nH]5)CC4)C=C3)c1` gave an absorption maximum of 644 nm.
Regarding `CCCC1(CCC)c2cc(C=C(C#Cc3ccccc3)C#Cc3ccccc3)ccc2-c2ccc(C=C(C#Cc3ccccc3)C#Cc3ccccc3)cc21`, where the note is “in ClC(Cl)Cl”, the absorption maximum is reported as 422 nm.
`COc1ccc(C2=C(c3ccc(OC)cc3)C(c3ccccc3)=[N+]3C2=Nc2c(-c4ccc(OC)cc4)c(-c4ccc(OC)cc4)c(-c4ccccc4)n2[B-]3(F)F)cc1` came in with an absorption maximum (in Cc1ccccc1) of 654 nm.
With `C#Cn1c(-c2cc(-c3nc4ccccc4n3C#C)cc(-c3nc4ccccc4n3C#C)c2)nc2ccccc21`, for the setting “in ClCCl”, the absorption maximum was found to be 305.5 nm.
Turning to `COC(=O)[C@H](Cc1ccc2oc3c(c2c1)=CC1=C(c2ccc(OC)cc2)c2cc4c5cc(C[C@H](NC(=O)OC(C)(C)C)C(=O)OC)ccc5oc4n2[B-](F)(F)[N+]=31)NC(=O)OC(C)(C)C`, the absorption maximum is, setting by setting: (in C1CCCCC1) 586.5 nm; (in CCOC(C)=O) 581.5 nm; (in CO) 580 nm.
Compound `CC1=CC(C)=[N+]2C1=C(c1ccc(C)cc1)c1c(C)cc(/C=C/c3ccc4ccc5cccc6ccc3c4c56)n1[B-]2(F)F` registered an absorption maximum (in CC1CCCO1) of 598 nm.
In the case of `CC(C)(C)c1cc(C(C)(C)C)c2oc3c(c2c1)C=CN1C(=O)C2=C4c5oc6c(C(C)(C)C)cc(C(C)(C)C)cc6c5C=CN4C(=O)C2=C31`, the absorption maximum is on record as 645 nm (in CN(C)C=O) and 643 nm (in ClC(Cl)Cl).
Where the note is “in O”, `Cc1cn(C)c(=O)nc1-n1cncn1` registered an absorption maximum of 323 nm.
Turning to `Cc1ccc(C2=C3C=C(I)C=[N+]3[B-](F)(F)n3cccc32)cc1`, the absorption maximum is on record as 523.5 nm (in C1CCCCC1); 516.5 nm (in CC#N); 518 nm (in CCO); 517 nm (in CCOC(C)=O); 516.5 nm (in CO); 513 nm (in OCC(F)(F)F).
`O=Cc1ccc(C#CC(C#Cc2ccc(C=O)o2)=Cc2ccc(C=C(C#Cc3ccc(C=O)o3)C#Cc3ccc(C=O)o3)cc2)o1` gave an absorption maximum (in ClC(Cl)Cl) of 450 nm.
For `C(=C\c1cnc2ccccc2n1)/c1ccc(N(c2ccccc2)c2ccccc2)cc1`, the absorption maximum reads like this: (in C1CCOC1) 423 nm; (in CC#N) 425 nm; (in CS(C)=O) 436 nm; (in ClCCl) 427 nm.
In the case of `CC1(C)c2ccccc2N(c2ccc3c(c2)c2cc(N4c5ccccc5C(C)(C)c5ccccc54)cc4c5ccccc5n3c42)c2ccccc21`, the absorption maximum (in C1CCOC1) is on record as 367 nm.
The compound `CC[n+]1c(-c2ccccc2)c2cc(N)ccc2c2ccc(NC(N)=O)cc21` came in with an absorption maximum (in O) of 458 nm.
`CC1=CC(C)=[N+]2C1=C(c1ccc(Br)cc1)c1c(C)cc(/C=C/c3ccc[nH]3)n1[B-]2(F)F`: the absorption maximum (in ClCCl) is on record as 590 nm.
`Fc1ccc(-c2cc3c4c(c2)CCc2cc(-c5ccc(F)cc5)cc(c2-4)CC3)cc1` displayed an absorption maximum (in ClC(Cl)Cl) of 323.56 nm.
Where the note is “in ClCCl”, `CCOC(=O)c1c(-c2c(Cl)c3ccccc3oc2=O)nn(-c2cccc(Cl)c2)c1C(=O)OCC` came in with an absorption maximum of 321 nm.
With `CC1(C)CC(=O)C2=C(C1)Oc1ccc3cc(O)ccc3c1C2c1ccccn1` (configuration not stated), the absorption maximum is recorded as 349 nm (in C1CCOC1); 347 nm (in C1COCCO1); 349 nm (in CC#N); 347 nm (in CCCCCCC); 349 nm (in CCO); 349 nm (in CO). For the same compound, the absorption maximum (in O) turned out to be 347 nm.
Consider `COc1ccc(-c2nc(-c3ccc(-c4nc(-c5ccc(OC)cc5)c(-c5ccc(OC)cc5)[nH]4)cc3)[nH]c2-c2ccc(OC)cc2)cc1`, for which the absorption maximum (in CC#N) was 330 nm and 365 nm.
As to `CCC(C)(C)c1ccc2c(c1)C(CC)(CC)c1cc(-c3ccc(-c4ccc5c(c4)C(CC)(CC)c4cc(C(C)(C)CC)ccc4-5)cc3)ccc1-2`, the absorption maximum (in C1CCCCC1) amounted to 332 nm.
`CCCCCCCCn1c2ccccc2c(=O)c2ccccc21` registered an absorption maximum (in CS(C)=O) of 404 nm.
In the case of `CC1=N/C(=C\c2ccccc2N)C(=O)N1C`, the absorption maximum (in C1CCCCC1) stood at 427 nm; the absorption maximum (in C1CCOC1) was 430 nm; the absorption maximum (in CC#N) is on record as 422 nm; the absorption maximum (in CO) was determined as 424 nm; the absorption maximum (in CS(C)=O) stood at 436 nm; the absorption maximum (in ClCCl) is 422 nm. Also, the absorption maximum (in O) was 390 nm.
Turning to `CC1=N/C(=C\c2cccc(N(C)C)c2)C(=O)N1C`, the absorption maximum (in C1CCOC1) turned out to be 354 nm; the absorption maximum (in CC#N) was 354 nm and 352 nm; the absorption maximum (in CCCCCC) is 352 nm.
As for `F[B-]1(F)Oc2ccccc2-c2cc(-n3c4ccc(-c5ccccc5)cc4c4cc(-c5ccccc5)ccc43)cc[n+]21`, the absorption maximum (in Cc1ccccc1) came to 374 nm.
Under “in C1CCOC1”, `C[Si](C)(C)c1ccc(-c2ccc(-c3ccc(-c4ccc(-c5ccc([Si](C)(C)C)cc5)s4)c4nsnc34)s2)cc1` yielded an absorption maximum of 495 nm.
Compound `CC(C)(C)c1ccccc1N(c1ccccc1)c1ccc(S(=O)(=O)c2ccc(S(=O)(=O)c3ccc(N(c4ccccc4)c4ccccc4C(C)(C)C)cc3)cc2)cc1` came in with an absorption maximum (in Cc1ccccc1) of 348 nm.
Take `COc1cc(-c2nc3c4cccnc4c4ncccc4c3[nH]2)c(OC)cc1/C=C/c1ccncc1`: the absorption maximum runs as follows: (in C1CCOC1) 394 nm; (in CC#N) 392 nm; (in CN(C)C=O) 396 nm; (in Cc1ccccc1) 395 nm.
Take `c1ccc(-c2nc(-c3ccccn3)[se]c2N(c2ccccc2)c2ccccc2)cc1`: for the setting “in ClC(Cl)Cl”, the absorption maximum turned out to be 406 nm.
Same read-out and setting: next, `COc1ccc(N(c2ccc(OC)cc2)c2ccc(-c3ccc(-c4ccc(-c5ccc(-c6ccc(N(c7ccc(OC)cc7)c7ccc(OC)cc7)cc6)s5)c5nsnc45)s3)cc2)cc1`: 545 nm.
For the compound `CCCCCCCCCCCCOc1ccc(C#CC(C#Cc2ccc(OCCCCCCCCCCCC)cc2)=Cc2cc(C=C(C#Cc3ccc(OCCCCCCCCCCCC)cc3)C#Cc3ccc(OCCCCCCCCCCCC)cc3)cc(C=C(C#Cc3ccc(OCCCCCCCCCCCC)cc3)C#Cc3ccc(OCCCCCCCCCCCC)cc3)c2)cc1`, the absorption maximum (in CCOC(C)=O) is given as 347 nm.
Under “in CC#N”, `Cc1ccc(C)c2nc3c(=O)[nH]c(=O)[nH]c3nc12` yielded an absorption maximum of 388 nm.
Compound `CN1/C(=C\C=C\C2=C3C=CC(c4ccccc4)=[N+]3[B-](F)(F)n3c2ccc3-c2ccccc2)Sc2ccccc21` returned an absorption maximum (in CC#N) of 683 nm.
Turning to `COCCOCCOCCOCC(COCCOCCOCCOC)Oc1cc(/C=C/c2ccc(/C=C(\C#N)c3ccccn3)cc2)c(OC(COCCOCCOCCOC)COCCOCCOCCOC)cc1/C=C/c1ccc(/C=C(\C#N)c2ccccn2)cc1`, the absorption maximum (in ClCCl) came out at 443 nm.
For `C(=C\c1cnc2ccccc2n1)/c1ccc(N2CCCCC2)cc1`, the absorption maximum stood at 410 nm (in C1CCOC1); 410 nm (in CC#N); 402 nm (in CCCCCCC); 423 nm (in CS(C)=O); 414 nm (in ClCCl).
The compound `CCC1(CC)c2ccccc2-c2c1c1c(c3c2C(CC)(CC)c2cc(B(c4c(C)cc(C)cc4C)c4c(C)cc(C)cc4C)ccc2-3)C(CC)(CC)c2cc(B(c3c(C)cc(C)cc3C)c3c(C)cc(C)cc3C)ccc2-1` showed an absorption maximum (in C1CCOC1) of 364 nm; an absorption maximum (in CC#N) of 359 nm; an absorption maximum (in CC(C)=O) of 360 nm; an absorption maximum (in CCCCCC) of 362 nm; an absorption maximum (in ClC(Cl)Cl) of 362 nm.
With `CN(C)c1ccc(/C=C/C=N/N=C/c2ccc3ccc4cccc5ccc2c3c45)cc1`, the absorption maximum was 426 nm (in CC#N); 420 nm (in CC(C)(C)O); 418 nm (in CC(C)=O); 432 nm (in CC(C)O); 433 nm (in CCCCO); 434 nm (in CO). Further, the absorption maximum is given as 438 nm (in CS(C)=O), 433 nm (in ClC(Cl)Cl), 430 nm (in ClCCl) and 420 nm (in O).
For `C[Si](C)(C)c1cccc2c(C#N)cccc12`, for the setting “in C1CCCCC1”, the absorption maximum turned out to be 311 nm.
The compound `COC(=O)/C=C/C1=CC2=C(c3c(C)cc(C)cc3C)c3cccn3[B-](F)(F)[N+]2=C1` had an absorption maximum (in ClCCl) of 537 nm.
Take `Oc1ccc2ccccc2c1/C=N/CC/N=C/c1c(O)ccc2ccccc12`: the absorption maximum (in CC#N) is given as 408 nm.
For the compound `N[C@@H](Cc1ccc(O)cc1)C(=O)O`, the absorption maximum (in O) is 285 nm.
`CC(C)(C)NC(=O)c1ccc2ccc3cccc4c3c2c1c1c2ccccc2c2ccccc2c41`: under “in ClCCl”, the absorption maximum came out at 392 nm.
